The record followed here is patent US20240352046A1, “ECTONUCLEOTIDE PYROPHOSPHATASE-PHOSPHODIESTERASE-1 (ENPP1) INHIBITORS AND USES THEREOF” (1cBio, Inc., priority 2020, published 2024).

Test [1] has as its system IP-10 release in differentiated THP-1 cells. In words: IP-10 cytokine release assay in THP-1 cell lines. It counts as cell-based, Human. As to conditions: for EC50: Homo sapiens. Here is the method:
Percent release of Interferon gamma-induced protein 10 (IP-10) was determined in acute monocytic leukemia (THP-1; ATCC® TIB-202™) cell line. THP-1 cells (0.2×10^6 cells/well) were differentiated using phorbol 12-myristate 13-acetate (PMA, 10 nM (final concentration); Cat #P8139, Sigma) and incubated for 24 h at 37° C., 5% CO2 in an incubator (cell culture conditions) prior to treating with serial dilutions of compounds (3 fold, 6 point dose response starting at 10 μM). After treatment with the compounds cells were further incubated for 2 h under cell culture conditions and then exposed to 2′,3′-cGAMP (c-GAMP, 1 μM (final concentration); Cat #SML 1229, Sigma). Differentiated THP-1 cells were further cultured for 24 h after which the supernatant was harvested, and ELISA was performed as per the manufacturer's protocol (BD optEIA Human IP-10 ELISA Set; Cat #550926 & 550534, BD Biosciences). Plates were read in Biotek plate reader by measuring absorbance at 450 nm.
The release of absolute IP-10 in differentiated THP-1 by compounds in the presence of cGAMP was quantified with reference to standard after subtracting blank (negative) reading from the test readings. The absolute release of IP-10 in the presence of cGAMP (1 μM) is given in the bar-graph (FIG.-1) and in the table-B2a.
The release of IP-10 in differentiated THP-1 by compounds over cGAMP induced release at four different concentrations of cGAMP (1, 5, 10 & 30 μM) was quantified with reference to standard by normalizing the blank (negative) subtracted test readings from average of cGAMP activated cells at that particular concentration. The EC50's was calculated by fitting the curve to the “four-parameter variable slope logistic model” using Prism Graph Pad.

Test [2] deals with ENPP-1 (Ectonucleotide Pyrophosphatase/Phosphodiesterase 1) (Homo sapiens (Human), UniProt P22413). In words: ENPP1 inhibition assay (AMP Glo, cGAMP substrate). Type of test: biochemical.
ENPP-1 (Ectonucleotide Pyrophosphatase/Phosphodiesterase 1), sequence (P22413 whole entry): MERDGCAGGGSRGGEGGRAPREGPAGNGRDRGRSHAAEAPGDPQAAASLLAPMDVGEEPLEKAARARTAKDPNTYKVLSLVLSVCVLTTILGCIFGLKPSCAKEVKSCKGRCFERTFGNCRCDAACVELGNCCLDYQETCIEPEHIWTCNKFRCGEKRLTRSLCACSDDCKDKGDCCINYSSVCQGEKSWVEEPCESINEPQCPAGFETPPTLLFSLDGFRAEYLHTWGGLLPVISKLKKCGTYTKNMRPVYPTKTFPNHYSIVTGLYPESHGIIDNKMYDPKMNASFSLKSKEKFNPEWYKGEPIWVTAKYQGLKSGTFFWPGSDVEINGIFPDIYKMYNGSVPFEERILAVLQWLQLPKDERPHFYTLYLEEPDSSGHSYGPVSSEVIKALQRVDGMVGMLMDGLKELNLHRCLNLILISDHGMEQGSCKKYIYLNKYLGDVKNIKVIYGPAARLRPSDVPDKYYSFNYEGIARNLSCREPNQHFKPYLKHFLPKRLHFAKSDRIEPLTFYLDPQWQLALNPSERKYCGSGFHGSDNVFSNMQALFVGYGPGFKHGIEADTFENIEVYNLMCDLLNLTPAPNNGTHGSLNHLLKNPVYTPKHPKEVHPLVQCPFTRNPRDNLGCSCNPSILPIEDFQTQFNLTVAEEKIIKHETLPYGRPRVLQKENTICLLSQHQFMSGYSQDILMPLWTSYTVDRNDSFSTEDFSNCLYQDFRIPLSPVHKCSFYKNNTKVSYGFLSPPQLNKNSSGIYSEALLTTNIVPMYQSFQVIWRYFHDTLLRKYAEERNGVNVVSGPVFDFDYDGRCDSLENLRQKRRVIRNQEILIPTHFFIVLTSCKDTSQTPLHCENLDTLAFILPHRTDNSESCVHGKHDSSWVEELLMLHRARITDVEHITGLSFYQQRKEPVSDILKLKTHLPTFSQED
Test [3] relates to IFN-β release in differentiated THP-1 cells. Description: IFN-β cytokine release assay in THP-1. Type of test: cell-based. To be noted: Homo sapiens, read-out: EC50 (μM) @ 1 μM of cGAMP; IFN-β release over cGAMP induced release, THP-1, 1 μM cGAMP. Here is the method:
Percent release of Interferon Beta (IFN-03) was determined in acute monocytic leukemia (THP-1; ATCC® TIB-202™) cell line. THP-1 cells (0.3×10^6 cells/well) were differentiated using phorbol 12-myristate 13-acetate (PMA, 50 ng/mL; Cat #P8139, Sigma) and incubated for 24 h at 37° C., 5% CO2 in an incubator (cell culture conditions) prior to treating with serial dilutions of compounds (3 fold, 5 point dose response starting at […]). After treatment with the compounds cells were further incubated for 2 h under cell culture conditions and then exposed to 2′,3′-cGAMP (c-GAMP, 1 μM; Cat #SML 1229, Sigma). Differentiated THP-1 cells were further cultured for 6 h after which the supernatant was harvested, and ELISA was performed as per the manufacturer's protocol (Human IFN-beta Quantikine ELISA Kit; Cat #DIFNB0, R&D systems). Plates were read in Biotek plate reader by measuring absorbance at 450 nm.

Setting [4] is: cGAMP 20 μM substrate, ENPP1 1 nM.
Setting [5] is: read-out: EC50 (μM)@ 1 μM of cGAMP, IP-10 release over cGAMP induced release, THP-1, 1 μM cGAMP.
The mark [6] stands for this setting: THP-1, read-out: EC50 (μM)@ 1 μM of cGAMP.

The structures appear in SMILES notation. Read-outs that look alike come from different tables or passages of the source.

With `Nc1nc2c(ncn2[C@@H]2O[C@@H]3COP(=O)(O)O[C@H]4[C@@H](O)[C@H](n5cnc6c(N)ncnc65)O[C@@H]4COP(=O)(O)O[C@@H]2[C@@H]3O)c(=O)[nH]1` [CGAMP, 2′,3′-cGAMP, reference compound], the “Percent release IP-10 (Absolute)” value in test [1] (cGAMP (1 μM) alone, differentiated THP-1) stood at 5.6%. As usually defined, the IC50 is the concentration at which inhibition is half-maximal. One may read the EC50 as the concentration at which the effect is half-maximal. Take `COc1cc2ncnc(N3CC(CCNS(C)(=O)=O)C3)c2cc1OC` [Compound 1.6, N-(2-[1-(6,7-dimethoxyquinazolin-4-yl)azetidin-3-yl]ethyl)methanesulfonamide]: the IC50 in test [2] (setting [4]) came out at 0.09 µM. Besides, the values for the EC50 in test [1] (setting [5]) and in test [3] were 7.78 µM and > 30 µM, respectively. For `COc1cc2ncnc(N3CC(CCNC(C)=O)C3)c2cc1OC` [Compound 1.7, N-(2-[1-(6,7-dimethoxyquinazolin-4-yl)azetidin-3-yl]ethyl)acetamide], the EC50 in test [1] (setting [6]) was > 30 µM.

Compound `COc1cc2nc(C)nc(N3CC(CCNS(N)(=O)=O)C3)c2cc1OC` [Compound 1.17, 4-(3-(2-sulfamoylaminoethyl)azetidine-1-yl)-6,7-dimethoxy-2-methylquinazoline] returned an IC50 in test [2] of 0.057 µM. Moreover, the EC50 in test [1] (setting [6]) stood at 0.129 µM. `CCOc1cccc2c(N3CC(CCNS(N)(=O)=O)C3)ncnc12` [Compound 1.19, 4-(3-(2-sulfamoylaminoethyl)azetidine-1-yl)-8-ethoxyquinazoline] returned an IC50 in test [2] (setting [4]) of 0.084 µM. In test [1] (setting [5]), the EC50 is < 0.12 µM. Regarding `Cc1ccn2ncnc(N3CC(CCNS(N)(=O)=O)C3)c12` [Compound 1.20, 4-(3-(2-sulfamoylaminoethyl)azetidine-1-yl)-5-methylpyrrolo[1,2-f][1,2,4]triazine], half-maximal inhibition in test [2] (setting [4]) (IC50) required 0.07 µM. Besides, the EC50 is 5.73 µM in test [1] (setting [5]) and > 30 µM in test [3].

For the compound `COc1cc2nc(-c3ccccc3)nc(N3CC(CCNS(N)(=O)=O)C3)c2cc1OC` [Compound 1.21, 4-(3-(2-sulfamoylaminoethyl)azetidine-1-yl)-6,7-dimethoxy-2-phenylquinazoline], in test [2] (setting [4]), the midpoint of inhibition, the IC50, lay at 0.092 µM. Besides, the EC50 was 1.88 µM in test [1] (setting [5]) and > 30 µM in test [3]. For the compound `COc1cc2ncnc(N3CC(C)(CCNS(N)(=O)=O)C3)c2cc1OC` [Compound 1.22, 4-(3-Methyl-3-(2-sulfamoylaminoethyl)azetidine-1-yl)-6,7-dimethoxyquinazoline], the IC50 in test [2] (setting [4]) was determined as 0.009 µM. In addition, the EC50 in test [1] (setting [5]) was found to be 0.49 µM.

In test [2] (setting [4]), `COc1ccc2c(N3CC4(CC(NS(N)(=O)=O)C4)C3)ncnc2c1` [Compound 1.26, 4-(6-sulfamoylamino-2-azaspiro[3.3]heptan-2-yl)-7-methoxyquinazoline] registered an IC50 of 0.006 µM. The EC50 in test [1] (setting [5]) is < 0.12 µM. Compound `COc1cc2nncc(N3CC(CCNS(N)(=O)=O)C3)c2cc1OC` [Compound 1.27, 4-(3-(2-sulfamoylaminoethyl)azetidine-1-yl)-6,7-dimethoxycinnoline] displayed an IC50 in test [2] (setting [4]) of 0.043 µM. The EC50 in test [1] (setting [5]) was < 0.1 µM.

`COc1cc2nc(-c3ccncc3)nc(N3CC(CCNS(N)(=O)=O)C3)c2cc1OC` [Compound 1.35, 4-(3-(2-sulfamoylaminoethyl)azetidine-1-yl)-6,7-dimethoxy-2-(pyridin-4-yl)quinazoline] displayed an IC50 in test [2] (setting [4]) of 0.099 µM. Also, the EC50 in test [1] (setting [5]) was > 30 µM.

For `COc1cc2ncnc(N3CC(CCCS(N)(=O)=O)C3)c2cc1OC` [Compound 1.39, 3-(1-(6,7-dimethoxyquinazolin-4-yl)azetidin-3-yl)propane-1-sulfonamide], the values for the EC50 in test [1] (setting [5]) and in test [3] were 3.26 µM and > 30 µM, respectively.

`COc1cc2ncnc(N3CC4(CC(N(C)S(N)(=O)=O)C4)C3)c2cc1OC` [Compound 1.46, N-[2-(6,7-di-methoxyquinazoline-4-yl)-2-azaspiro[3.3]hept-6-yl]-N-methylsulfuric diamide] showed a 50% inhibitory concentration (IC50) in test [2] (setting [4]) of 0.019 µM. Besides, the EC50 in test [1] (setting [5]) was determined as 0.912 µM.

Regarding `COc1cc2ncnc(N3CC(CCN(C)S(N)(=O)=O)C3)c2cc1OC` [Compound 1.47, 4-(3-(2-sulfamoylmethylaminoethyl)azetidine-1-yl)-6,7-di-methoxyquinazoline], the EC50 in test [1] (setting [5]) was determined as 19.9 µM. In test [2] (setting [4]), `COc1cc2ncnc(N3CC4(CC(N(C5CC5)S(N)(=O)=O)C4)C3)c2cc1OC` [Compound 1.48, N-[2-(6,7-di-methoxyquinazoline-4-yl)-2-azaspiro[3.3]hept-6-yl]-N-cyclopropylsulfuric diamide] gave a half-maximal inhibitory concentration (IC50) of 0.144 µM. In addition, the EC50 in test [1] (setting [5]) was > 30 µM. For `COc1cc2ncnc(N3CC4(CC(NS(C)(=O)=O)C4)C3)c2cc1OC` [Compound 1.49, N-(2-(6,7-dimethoxyquinazolin-4-yl)-2-azaspiro[3.3]heptan-6-yl)methanesulfonamide] the same measures were > 1.98 µM and > 30 µM.

In the case of `COc1cc(OC)c2ncnc(N3CC(CCNS(N)(=O)=O)C3)c2c1` [Compound 1.50, 4-(3-(2-sulfamoylaminoethyl)azetidine-1-yl)-6,8-di-methoxyquinazoline], the midpoint of inhibition in test [2] (setting [4]), the IC50, lay at 1.48 µM. Besides, the EC50 in test [1] (setting [5]) is > 30 µM.

`COc1cc2ncnc(N3CC(CCC(=O)NO)C3)c2cc1OC` [Compound 1.51, 3-(1-(6,7-dimethoxyquinazolin-4-yl)azetidin-3-yl)-N-hydroxypropanamide]: in test [2] (setting [4]), the IC50 was determined as 0.015 µM. Moreover, the EC50 in test [1] (setting [5]) is > 30 µM. For `COc1cc2ncnc(N3CC(CCS(N)(=O)=O)C3)c2cc1OC` [Compound 1.52, 2-(1-(6,7-dimethoxyquinazolin-4-yl)azetidin-3-yl)ethanesulfonamide] the same measures were 0.043 µM and > 18.6 µM. In the case of `COc1cc2ncnc(N3CC4(CC(C(=O)NO)C4)C3)c2cc1OC` [Compound 1.63, 2-(6,7-dimethoxyquinazolin-4-yl)-N-hydroxy-2-azaspiro[3.3]heptane-6-carboxamide], the EC50 in test [1] (setting [5]) was < 0.12 µM. Regarding `COc1cc2ncnc(N3CC(CCNS(N)(=O)=O)C3)c2cc1F` [Compound 1.66, 4-(3-(2-sulfamoylaminoethyl)azetidine-1-yl)-6-fluoro-7-methoxy quinazoline], half-maximal inhibition in test [2] (setting [4]) (IC50) required 0.006 µM. For the same compound, the concentration giving a half-maximal response (EC50) in test [1] (setting [5]) was < 0.12 µM.

As for `COc1cc2ncnc(N3CC(CCCNS(N)(=O)=O)C3)c2cc1OC` [Compound 1.69, 4-3-(3-sulfamoylaminopropyl)azetidin-1-yl-6,7-dimethoxyquinazoline], the EC50 in test [1] (setting [5]) was 0.724 µM. On to `Cc1nc(N2CC(CCNS(N)(=O)=O)C2)c2c(C)ccn2n1` [Compound 1.71, 4-(3-(2-sulfamoylaminoethyl)azetidine-1-yl)-2,5-di-methylpyrrolo[1,2-f][1,2,4]triazine], for which the IC50 in test [2] (setting [4]) is > 3 µM. Besides, the EC50 in test [3] was > 30 µM. `Cc1cc(Cl)n2ncnc(N3CC4(CC(N(CC(F)(F)F)S(N)(=O)=O)C4)C3)c12` [Compound 1.129, N-(2-(7-chloro-5-methylpyrrolo[1,2-f][1,2,4]triazin-4-yl)-2-azaspiro[3.3]heptan-6-yl)-N-(2,2,2-trifluoroethyl)sulfamamide] returned an IC50 in test [2] (setting [4]) of 0.047 µM. `COc1ccc2c(N3CC4(CC(N(CC(F)F)S(N)(=O)=O)C4)C3)ncnc2c1` [Compound 1.131, N-(2,2-difluoroethyl)-N-(2-(7-methoxyquinazolin-4-yl)-2-azaspiro[3.3]heptan-6-yl) sulfamamide] yielded an IC50 in test [2] (setting [4]) of 0.055 µM. Still for that read-out and setting: next, `Cc1cc(Cl)n2ncnc(N3CC4(CC(NCc5ccc(S(N)(=O)=O)cc5)C4)C3)c12` [Compound 1.132, 4-(((2-(7-chloro-5-methylpyrrolo[2,1-f][1,2,4]triazin-4-yl)-2-azaspiro[3.3]heptan-6-yl)amino)methyl)benzenesulfonamide]: 0.181 µM. The same measure, in the same setting: the value for `Cc1cc(Cl)n2ncnc(N3CC4(CC(N(C)Cc5ccc(S(N)(=O)=O)cc5)C4)C3)c12` [Compound 1.133, 4-(((2-(7-chloro-5-methylpyrrolo[2,1-f][1,2,4]triazin-4-yl)-2-azaspiro[3.3]heptan-6-yl)(methyl)amino)methyl)benzenesulfonamide] was 0.27 µM.
